ChEMBL document CHEMBL1201862, “PubChem BioAssay data set” (2004)
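Assay format: 96-well plates, 48-hour exposure. GI50 is the concentration that inhibits growth by half.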 The source made the active and inactive calls. Cut-off read from the data, not from the text of the source: active = GI50 up to about 1.1 µM and inactive = higher.

Experiments:
Assay in all cases: NCI tumour cell line growth inhibition, 48 h
M14 = tested on: M14
HCC 2998 = tested on: HCC 2998
MOLT-4 = tested on: MOLT-4
DU-145 = tested on: DU-145
SW-620 = tested on: SW-620
IGROV-1 = tested on: IGROV-1
SK-MEL-2 = tested on: SK-MEL-2
UO-31 = tested on: UO-31
HL-60 = tested on: HL-60
BT-549 = tested on: BT-549
SF-539 = tested on: SF-539
Hs-578T = tested on: Hs-578T
A498 = tested on: A498
NCI-H23 = tested on: NCI-H23
SF-295 = tested on: SF-295
MDA-N = tested on: MDA-N
SK-OV-3 = tested on: SK-OV-3
SK-MEL-28 = tested on: SK-MEL-28
OVCAR-5 = tested on: OVCAR-5
MDA-MB-435 = tested on: MDA-MB-435
PC-3 = tested on: PC-3
CAKI-1 = tested on: CAKI-1
SR = tested on: SR
MCF7 = tested on: MCF7
SK-MEL-5 = tested on: SK-MEL-5
HT-29 = tested on: HT-29
HCT-116 = tested on: HCT-116
786-0 = tested on: 786-0
NCI-H226 = tested on: NCI-H226
EKVX = tested on: EKVX
MDA-MB-231 = tested on: MDA-MB-231
T47D = tested on: T47D
RPMI-8226 = tested on: RPMI-8226
SNB-19 = tested on: SNB-19
OVCAR-3 = tested on: OVCAR-3
NCI-H460 = tested on: NCI-H460
A549 = tested on: A549
SF-268 = tested on: SF-268
NCI/ADR-RES = tested on: NCI/ADR-RES
KM12 = tested on: KM12
SNB-75 = tested on: SNB-75
UACC-62 = tested on: UACC-62
LOX IMVI = tested on: LOX IMVI
NCI-H522 = tested on: NCI-H522
OVCAR-8 = tested on: OVCAR-8
HCT-15 = tested on: HCT-15
COLO 205 = tested on: COLO 205
UACC-257 = tested on: UACC-257
Malme-3M = tested on: Malme-3M
TK-10 = tested on: TK-10
OVCAR-4 = tested on: OVCAR-4
SN12C = tested on: SN12C
U-251 = tested on: U-251
HOP-92 = tested on: HOP-92
K562 = tested on: K562
ACHN = tested on: ACHN
CCRF-CEM = tested on: CCRF-CEM
HOP-62 = tested on: HOP-62
RXF 393 = tested on: RXF 393

Measured: GI50

OC1COC(n2c3ccc(Br)cc3c3ccc4c5ccccc5[nH]c4c32)C(O)C1O (configuration not stated)
active: SW-620 0.644 µM | SK-MEL-2 0.658 µM | BT-549 1.1 µM | SF-295 0.538 µM | SK-OV-3 0.832 µM | UACC-62 0.643 µM
3.37 µM: HCT-15
inactive: M14 3.12 µM | HCC 2998 2.67 µM | MOLT-4 3.05 µM | DU-145 3.66 µM | IGROV-1 1.21 µM | UO-31 2.82 µM | HL-60 3.48 µM | SF-539 5.24 µM | Hs-578T 3.18 µM | A498 4.3 µM | NCI-H23 3.02 µM | MDA-N 4.4 µM | SK-MEL-28 1.13 µM | OVCAR-5 2.92 µM | MDA-MB-435 3.89 µM | PC-3 2.21 µM | CAKI-1 3.13 µM | SR 3.67 µM | MCF7 2.99 µM | SK-MEL-5 2.26 µM | HT-29 3.15 µM | HCT-116 3.55 µM | 786-0 3.96 µM | NCI-H226 6.76 µM | EKVX 4.59 µM | MDA-MB-231 2.14 µM | T47D 5.21 µM | RPMI-8226 3.52 µM | SNB-19 10.7 µM | OVCAR-3 3.37 µM | NCI-H460 2.58 µM | A549 2.61 µM | SF-268 3.84 µM | NCI/ADR-RES 4.07 µM | KM12 1.56 µM | SNB-75 3.24 µM | LOX IMVI 2.31 µM | NCI-H522 2.82 µM | OVCAR-8 3.65 µM | COLO 205 1.89 µM | UACC-257 5.21 µM | Malme-3M 3.88 µM | TK-10 4.28 µM | OVCAR-4 13.5 µM | SN12C 4.84 µM | U-251 5.01 µM | HOP-92 2.54 µM | K562 2.29 µM | ACHN 2.84 µM | CCRF-CEM 4.72 µM | HOP-62 3.64 µM | RXF 393 1.76 µM

Nc1cc2c3c(c1)Oc1cc(N)cc4c1C3c1c(cc(N)cc1O4)O2
inactive: M14 26.9 µM | HCC 2998 34.9 µM | MOLT-4 39.6 µM | DU-145 3.03 µM | SW-620 33.7 µM | IGROV-1 10.4 µM | SK-MEL-2 28.9 µM | UO-31 47.2 µM | HL-60 23.9 µM | BT-549 15.2 µM | SF-539 15.7 µM | Hs-578T 24.2 µM | A498 63.8 µM | NCI-H23 33 µM | SF-295 26.2 µM | MDA-N 17.8 µM | SK-OV-3 46.5 µM | SK-MEL-28 47.3 µM | OVCAR-5 29 µM | MDA-MB-435 29 µM | PC-3 26.1 µM | CAKI-1 14.4 µM | SR 15.5 µM | MCF7 24.8 µM | SK-MEL-5 11.9 µM | HT-29 25.3 µM | HCT-116 21.7 µM | 786-0 25.3 µM | NCI-H226 3.07 µM | EKVX 11.6 µM | MDA-MB-231 16.2 µM | T47D 20.7 µM | RPMI-8226 14.7 µM | SNB-19 37.5 µM | OVCAR-3 20.2 µM | NCI-H460 30.3 µM | A549 32.5 µM | SF-268 12.5 µM | NCI/ADR-RES 6.32 µM | KM12 22.9 µM | SNB-75 19.3 µM | UACC-62 26.4 µM | LOX IMVI 17.9 µM | NCI-H522 21.2 µM | OVCAR-8 9.48 µM | COLO 205 16.1 µM | UACC-257 30.5 µM | Malme-3M 6.32 µM | TK-10 41.7 µM | OVCAR-4 56.5 µM | SN12C 16.7 µM | U-251 43.1 µM | HOP-92 57.5 µM | K562 30.8 µM | ACHN 22 µM | CCRF-CEM 43.4 µM | HOP-62 25.7 µM | RXF 393 12.3 µM
18.3 µM: HCT-15

C[C@]12CCC(=O)C=C1CC[C@@H]1[C@@H]2[C@@H](O)C[C@@]2(C)[C@H]1CC[C@]2(O)C(=O)CO [HYDROCORTISONE]
> 100 µM: HCT-15
inactive: M14 > 100 µM | HCC 2998 > 100 µM | MOLT-4 > 100 µM | DU-145 > 100 µM | SW-620 > 100 µM | IGROV-1 > 100 µM | SK-MEL-2 > 100 µM | UO-31 > 100 µM | HL-60 > 100 µM | BT-549 > 100 µM | SF-539 > 100 µM | Hs-578T > 100 µM | A498 > 100 µM | NCI-H23 > 100 µM | SF-295 > 100 µM | MDA-N > 100 µM | SK-OV-3 > 100 µM | SK-MEL-28 > 100 µM | OVCAR-5 > 100 µM | MDA-MB-435 > 100 µM | PC-3 > 100 µM | CAKI-1 > 100 µM | SR > 100 µM | MCF7 > 100 µM | SK-MEL-5 > 100 µM | HT-29 > 100 µM | HCT-116 > 100 µM | 786-0 > 100 µM | NCI-H226 > 100 µM | EKVX > 82.4 µM | MDA-MB-231 > 100 µM | T47D > 100 µM | SNB-19 > 100 µM | OVCAR-3 > 100 µM | NCI-H460 > 100 µM | A549 > 100 µM | SF-268 > 100 µM | NCI/ADR-RES > 100 µM | KM12 > 100 µM | SNB-75 > 100 µM | UACC-62 > 100 µM | LOX IMVI > 100 µM | NCI-H522 > 100 µM | OVCAR-8 > 100 µM | COLO 205 > 100 µM | UACC-257 > 100 µM | Malme-3M > 100 µM | TK-10 > 100 µM | OVCAR-4 > 100 µM | SN12C 31.8 µM | U-251 > 100 µM | HOP-92 > 100 µM | K562 > 100 µM | ACHN > 100 µM | CCRF-CEM 18.7 µM | HOP-62 > 100 µM | RXF 393 > 100 µM
active: RPMI-8226 0.34 µM

CCOC(=O)c1nc2cc(C(F)(F)F)ccc2nc1Oc1ccc(F)cc1
inactive: M14 > 100 µM | HCC 2998 > 100 µM | MOLT-4 > 100 µM | DU-145 > 100 µM | SW-620 > 100 µM | IGROV-1 > 100 µM | SK-MEL-2 > 100 µM | UO-31 61.5 µM | HL-60 63.4 µM | BT-549 > 100 µM | SF-539 > 100 µM | Hs-578T > 100 µM | A498 > 100 µM | SF-295 > 100 µM | MDA-N > 100 µM | SK-MEL-28 > 100 µM | OVCAR-5 > 100 µM | MDA-MB-435 > 100 µM | PC-3 > 100 µM | CAKI-1 > 100 µM | SR > 100 µM | MCF7 > 100 µM | SK-MEL-5 > 100 µM | HCT-116 4.49 µM | 786-0 > 100 µM | NCI-H226 > 100 µM | EKVX > 100 µM | MDA-MB-231 > 100 µM | T47D 5.9 µM | RPMI-8226 > 100 µM | SNB-19 > 100 µM | OVCAR-3 > 100 µM | NCI-H460 > 100 µM | A549 > 100 µM | SF-268 > 100 µM | NCI/ADR-RES > 100 µM | KM12 > 100 µM | SNB-75 > 100 µM | UACC-62 > 100 µM | LOX IMVI > 100 µM | NCI-H522 > 100 µM | OVCAR-8 > 100 µM | COLO 205 > 100 µM | UACC-257 > 100 µM | Malme-3M > 100 µM | TK-10 > 100 µM | OVCAR-4 69.5 µM | SN12C > 100 µM | U-251 > 100 µM | HOP-92 87.3 µM | K562 > 100 µM | ACHN > 100 µM | CCRF-CEM > 100 µM | RXF 393 54 µM
> 100 µM: HCT-15
